Measured values: patent publication US11518764B2, “Substituted heteroaryls as inhibitors of the BCL6 BTB domain protein-protein interaction” (Ontario Institute for Cancer Research (OICR), priority 2018, dated 2022)
pEC50, pIC50, pKd: −log10 of the molar value. Where two headings read alike, the source gives them in different places.

Tests used:
[1] = biological target: BCL6 BTB domain (Homo sapiens (Human), UniProt P41182); test: Surface plasmon resonance (SPR) assay; format: binding; settings: BCL6 BTB domain captured on SA chip, single cycle kinetics
[2] = test system: BCL6 reporter construct (3xBCL6-TK-Luc) in SuDHL4 cells; test: Cell-based luciferase assay; settings: for EC50: Homo sapiens, SU-DHL-4, 48 h, read-out: Luciferase-Assay EC50, uM), SuDHL4-3xBCL6-TK-Luc cells, two days, high dose 10 uM
Outline: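 SuDHL4 cells stably carrying a 3×BCL6-site TK-promoter firefly luciferase reporter, seeded at 15,000 cells/well, were dosed over a 10-point range (top 10 uM) and grown two days at 37 °C, 5% CO2. Luminescence then read after adding neolite reagent at room temperature.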

[3] = test system: Karpas422 cells; test: Tumor cell growth inhibition assay; format: cell-based; settings: for IC50: Homo sapiens, KARPAS-422, 144 h, read-out: Tumor Growth Inhibition in Karpas-422 (IC50, uM), Karpas422 cells, six days, ATPlite
Outline: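 Karpas422 cells (2,000/well) in Alpha-MEM with 10% FBS dosed across 10 concentrations (top 5 uM) and grown six days at 37° C., 5% CO2. Viability read as ATPlite luminescence.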

SMILES	pKd [1]	EC50 [2]	IC50 [3]	pEC50 ([2]; read-out: Luciferase-Assay EC50, SuDHL4-3xBCL6-TK-Luc cells, two days, high dose 10 uM)	pIC50 ([3]; read-out: Tumor Growth Inhibition in Karpas-422 (IC50), Karpas422 cells, six days, ATPlite)
Cn1cnc2c(c(-c3cc(F)c(O)c(C(N)=O)c3)cn2CC(=O)Nc2cc(N3C[C@H]4CCO[C@H]4C3)ncc2Cl)c1=O [Compound I-158]	8.75	1.01 µM	0.249 µM		
COc1c(O)c(C(N)=O)cc(-c2cn(CC(=O)Nc3cc(N4CCOC[C@@H]4C)nc(F)c3Cl)c3ncn(C)c(=O)c23)c1F [Compound I-411]	7.34	0.771 µM	1.12 µM		
C[C@H]1CN(CC(F)F)CCN1c1cc(NC(=O)Cn2cc(-c3cc(C(N)=O)c(O)c(F)c3F)c3c(=O)n(C)cnc32)c(Cl)c(F)n1 [Compound I-469]	7.45	0.141 µM	0.153 µM		
Cn1cnc2c(c(-c3cc(Cl)c(O)c(C(N)=O)c3)cn2CC(=O)Nc2cc(N3C[C@H]4CCO[C@H]4C3)ncc2Cl)c1=O [Compound I-74]	8.70	2.3 µM	0.123 µM		
C[C@H]1CN(C)CCN1c1cc(NC(=O)Cn2cc(-c3cc(F)c(O)c(C(N)=O)c3)c3c(=O)n(CC#Cc4cnn(C)c4)cnc32)c(Cl)cn1 [Compound I-480]	6.86	2.21 µM	0.704 µM		
CO[C@@H]1CN(c2cc(NC(=O)Cn3cc(-c4cc(Cl)c(O)c(C(N)=O)c4)c4c(=O)n(C)cnc43)c(Cl)cn2)C[C@@H]1F [Compound I-365]	7.76	0.281 µM	0.462 µM		
Cn1cnc2c(c(-c3cc(Cl)c(O)c(C(N)=O)c3)cn2CC(=O)Nc2cc(N3CC4CC3CO4)ncc2Cl)c1=O (stereo not drawn) [Compound I-154]	7.47	0.469 µM	0.559 µM		
Cn1ccc2c(c(-c3cc(Cl)c(O)c(C(N)=O)c3)cn2CC(=O)Nc2cc(N3CCOCC3)ncc2Cl)c1=O [Compound I-141]	6.58	1.83 µM	1.02 µM		
C[C@@H]1COC[C@@H](C)N1c1cc(NC(=O)Cn2cc(-c3cc(Cl)c(O)c(C(N)=O)c3)c3c(=O)n(C)cnc32)c(Cl)cn1 [Compound I-259]	7.41	0.214 µM	0.652 µM		
Cc1ccc(CN2CCN(c3cc(NC(=O)Cn4cc(-c5cc(C(N)=O)c(O)c(F)c5F)c5c(=O)n(C)cnc54)c(Cl)cn3)[C@@H](C)C2)s1 [Compound I-406]	6.24	3.06 µM	4.32 µM		
Cn1cnc2c(c(-c3cc(Cl)c(O)c(C(N)=O)c3)cn2CC(=O)Nc2cc(N3CC4(CCOC4)C3)ncc2Cl)c1=O [Compound I-351]	7.40	0.591 µM	1.2 µM		
Cn1cnc2c(c(-c3cc(Cl)c(O)c(C(N)=O)c3)cn2CC(=O)Nc2cc3c(cc2Cl)OCC(=O)N3CCN2CCOCC2)c1=O [Compound I-214]	7.51	1.35 µM	0.855 µM		
CN1CCC2CN(c3cc(NC(=O)Cn4cc(-c5cc(F)c(O)c(C(N)=O)c5)c5c(=O)n(C)cnc54)c(Cl)cn3)CC21 (stereo not drawn) [Compound I-276]	7.48	1.1 µM	0.355 µM		
C[C@H]1CN(C)CCN1c1cc(NC(=O)Cn2cc(-c3cc(F)c(O)c(C(N)=O)c3)c3c(=O)n(CC#Cc4cnn(C)c4)cnc32)c(Cl)c(F)n1 [Compound I-432, (S)-5-(7-(2-((3-chloro-6-(2,4-dimethylpiperazin-1-yl)-2-fluoropyridin-4-yl)amino)-2-oxoethyl)-3-(3-(1-methyl-1H-pyrazol-4-yl)prop-2-yn-1-yl)-4-oxo-4,7-dihydro-3H-pyrrolo[2,3-d]pyrimidin-5-yl)-3-fluoro-2-hydroxybenzamide]	8.62	0.0347 µM	0.0181 µM		
C[C@H]1COCCN1c1cc(NC(=O)Cn2cc(-c3cc(C(N)=O)c(O)c4c3OCO4)c3c(=O)n(C)cnc32)c(Cl)cn1 [Compound I-302]	8.30	0.0865 µM	0.0528 µM		
C[C@H]1COCCN1c1cc(NC(=O)Cn2cc(-c3cc(Cl)c(O)c(C(N)=O)c3)c3c(=O)n(C)c(C(F)(F)F)nc32)c(Cl)cn1 [Compound I-216]	7.12	0.97 µM	0.831 µM		
CC(C)[C@H]1CN(c2cc(NC(=O)Cn3cc(-c4cc(Cl)c(O)c(C(N)=O)c4)c4c(=O)n(C)cnc43)c(Cl)cn2)CCO1 [Compound I-204]	7.45	0.251 µM	0.146 µM		
CN(C)c1cc(NC(=O)Cn2cc(-c3cc(Cl)c(O)c(C(N)=O)c3)c3c(=O)n(C)c(NCC4CC4)nc32)c(Cl)cn1 [Compound I-130]	7.10	1.03 µM	0.775 µM		
CCN1CCN(c2cc(NC(=O)Cn3cc(-c4cc(F)c(O)c(C(N)=O)c4)c4c(=O)n(C)cnc43)c(Cl)cn2)[C@@H](C)C1 [Compound I-390]	8.21	0.0677 µM	0.0483 µM		

SMILES	pKd [1]	EC50 [2]	IC50 [3]	pEC50 ([2]; read-out: Luciferase-Assay EC50, SuDHL4-3xBCL6-TK-Luc cells, two days, high dose 10 uM)	pIC50 ([3]; read-out: Tumor Growth Inhibition in Karpas-422 (IC50), Karpas422 cells, six days, ATPlite)
C[C@@H]1CN(c2cc(NC(=O)Cn3cc(-c4cc(C(N)=O)c(O)c(F)c4F)c4c(=O)n(C)cnc43)c(Cl)cn2)C[C@H](C)O1 [Compound I-179]	7.11	0.612 µM	0.681 µM		
C[C@H]1CNCCN1c1cc(NC(=O)Cn2cc(-c3cc(C(N)=O)c(O)c(F)c3F)c3c(=O)n(C)cnc32)c(Cl)cn1 [Compound I-335]	7.61	6.92 µM	5.1 µM		
CC(C)[C@H]1CN(C)CCN1c1cc(NC(=O)Cn2cc(-c3cc(C(N)=O)c(O)c(F)c3F)c3c(=O)n(C)cnc32)c(Cl)cn1 [Compound I-361]	7.15	1.33 µM	1.37 µM		
COc1c(O)c(C(N)=O)cc(-c2cn(CC(=O)Nc3cc(N4CCOCC4)ncc3F)c3ncn(C)c(=O)c23)c1F [Compound I-197]	6.66	4.01 µM	10 µM		
Cc1nc2c(c(-c3cc(F)c(O)c(C(N)=O)c3)cn2CC(=O)Nc2cc(N3CC(C)(C)N(C)C(C)(C)C3)ncc2Cl)c(=O)n1C [Compound I-250]	7.79	0.0822 µM	0.0902 µM		
CC(C)N1CCN(c2cc(NC(=O)Cn3cc(-c4cc(Cl)c(O)c(C(N)=O)c4)c4c(=O)n(C)c(C(F)(F)F)nc43)c(Cl)cn2)[C@@H](C)C1 [Compound I-274]	6.86	0.669 µM	0.332 µM		
Cn1cnc2c(c(-c3cc(Cl)c(O)c(C(N)=O)c3)cn2CC(=O)Nc2cc(N3CCOC4CCCC43)ncc2Cl)c1=O (stereo not drawn) [Compound I-280]	7.00	1.4 µM	0.821 µM		
CO[C@H]1CN(c2cc(NC(=O)Cn3cc(-c4cc(C(N)=O)c(O)c(F)c4F)c4c(=O)n(C)cnc43)c(Cl)cn2)C[C@H]1F [Compound I-364]	7.60	0.819 µM	1.04 µM		
Cn1cnc2c(c(-c3cc(Cl)c(O)c(C(N)=O)c3)cn2CC(=O)Nc2cc(N3CCOC(C(F)(F)F)C3)ncc2Cl)c1=O (stereo not drawn) [Compound I-256]	6.68			6.29	6.56
Cn1cnc2c(c(-c3cc(C(N)=O)c(O)c(F)c3F)cn2CC(=O)Nc2cc(N3CCC3)nc(F)c2Cl)c1=O [Compound I-488]	7.15	1.28 µM	0.417 µM		
C[C@H]1COCCN1c1cc(NC(=O)Cn2cc(-c3cc(Cl)c(O)c(C(N)=O)c3)c3c(=O)[nH]cnc32)c(Cl)cn1 [Compound I-145]	8.22	0.303 µM	0.551 µM		
Cn1c(NCCC(F)(F)F)nc2c(c(-c3cc(Cl)c(O)c(C(N)=O)c3)cn2CC(=O)Nc2cc(N3CCOCC3)ncc2Cl)c1=O [Compound I-134]	7.01	0.477 µM	0.57 µM		
Cc1nc2c(c(-c3cc(F)c(O)c(C(N)=O)c3)cn2CC(=O)Nc2cc(N3CC4CCC(C3)O4)ncc2Cl)c(=O)n1C [Compound I-199]	8.09	0.117 µM	0.0909 µM		
C[C@@H]1CN(c2cc(NC(=O)Cn3cc(-c4cc(C(N)=O)c(O)c(F)c4F)c4c(=O)n(C)cnc43)c(Cl)cn2)C[C@H](C)N1 [Compound I-225]	6.94	20.5 µM	4.34 µM		
CCN1CCN(c2cc(NC(=O)Cn3cc(-c4cc(C(N)=O)c(O)c5c4OCO5)c4c(=O)n(C)cnc43)c(Cl)c(F)n2)[C@@H](C)C1 [Compound I-357]	8.73	0.0322 µM	0.0288 µM		
Cc1nc2c(c(-c3cc(Cl)c(O)c(C(N)=O)c3)cn2CC(=O)Nc2cc(N3CCN(C(C)C)C[C@@H]3C)ncc2Cl)c(=O)n1C [Compound I-272]	7.83	0.133 µM	0.145 µM		
C[C@@H](C1CC1)N1CCN(c2cc(NC(=O)Cn3cc(-c4cc(C(N)=O)c(O)c(F)c4F)c4c(=O)n(C)cnc43)c(Cl)c(F)n2)[C@@H](C)C1 [Compound I-454]	7.87	0.306 µM	0.244 µM		
CN(C)C1CN(c2cc(NC(=O)Cn3cc(-c4cc(F)c(O)c(C(N)=O)c4)c4c(=O)n(C)cnc43)c(Cl)cn2)C1 [Compound I-433]	8.07	0.548 µM	0.201 µM		
C[C@H]1COCCN1c1cc(NC(=O)Cn2cc(-c3cc(C(N)=O)c(O)c(F)c3F)c3c(=O)n(C)cnc32)c(Cl)c(F)n1 [Compound I-317]	7.26	0.633 µM	0.467 µM		
